Experimental data taken from patent US10344025B2, “GLS1 inhibitors for treating disease” (Board of Regents, The University of Texas System, priority 2014, dated 2019).

Key:
[1] = target: purified recombinant human GAC (GLS1) (Homo sapiens (Human), UniProt O94925); test: GLS1 Enzymatic Activity Assay (dual-coupled enzymatic assay, resorufin/Amplex UltraRed readout); assay type: biochemical;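 note: glutamate from GAC coupled via glutamate oxidase and peroxidase to resorufin, read as fluorescence (ex 530, em 590 nm) kinetically or at 20 min, four-parameter logistic IC50 fit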
Sequence of purified recombinant human GAC (GLS1) (O94925 other isoform, or with tags, fused parts or gaps): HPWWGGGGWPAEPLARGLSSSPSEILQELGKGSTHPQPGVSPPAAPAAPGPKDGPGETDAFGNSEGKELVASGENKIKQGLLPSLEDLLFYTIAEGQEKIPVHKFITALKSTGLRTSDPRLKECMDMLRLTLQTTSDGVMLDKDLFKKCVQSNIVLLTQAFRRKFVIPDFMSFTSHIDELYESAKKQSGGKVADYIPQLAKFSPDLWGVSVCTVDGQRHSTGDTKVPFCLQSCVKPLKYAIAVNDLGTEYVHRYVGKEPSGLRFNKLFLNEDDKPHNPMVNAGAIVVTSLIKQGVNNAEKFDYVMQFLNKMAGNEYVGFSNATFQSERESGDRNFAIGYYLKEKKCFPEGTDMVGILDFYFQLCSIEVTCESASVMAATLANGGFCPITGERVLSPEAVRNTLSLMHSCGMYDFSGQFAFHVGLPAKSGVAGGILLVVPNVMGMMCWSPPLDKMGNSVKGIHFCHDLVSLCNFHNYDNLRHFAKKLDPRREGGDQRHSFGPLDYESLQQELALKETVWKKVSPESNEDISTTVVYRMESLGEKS

[2] = tested on: A549 cells; test: Proliferation Assay (A549 viability, Cell Titer Fluor, 72 hours); assay type: cell-based; conditions: Homo sapiens, A549, 72 h
Outline: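 A549 cells seeded at 1000 cells/well, rested 24 h, then exposed to compound in 0.5% DMSO for 72 h at 37 °C. Viability read by Cell Titer Fluor fluorescence; IC50 from four-parameter logistic fit.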

IC50 [1]: < 100 nM | EC50 [2]: < 100 nM
SMILES: CNC(=O)c1cn(CCCCc2ccc(NC(=O)Cc3cc(-c4ccccc4C(F)(F)F)ccn3)nn2)nn1 [Example 605, N-methyl-1-(4-(6-(2-(4-(2-(trifluoromethyl)phenyl)pyridin-2-yl)acetamido)pyridazin-3-yl)butyl)-1H-1,2,3-triazole-4-carboxamide]
